Reference: patent US12214008B2, “Protein interfaces” (SyntheX, Inc., priority 2016, dated 2025)

What was measured:
SSP-25 cells = test: xCELLigence cell death assay; format: cell-based; conditions: 10 μM compound 10 alone
Experimental: Further, singly-dosed cells continued to recover, which indicated reduced general cytotoxicity of the compound in the media or the lysed cells.
(§1) To optimize cellular activity, compounds were tested in xCELLigence cell death assays against various cell lines. An example of the workflow used is shown using A549 cells and compound 10 in FIGS. 15 and 16. […] Data from xCELLigence traces at different compound concentrations from FIG. 15 was then used to generate a dose-response curve, which was then subjected to nonlinear regression using a sigmoidal dose-response model to generate IC50s and R2 values for cell death for each compound/cell line combination (FIG. 16).
To further investigate the hypothesis that peptide binding to RAD51 in cells causes cell death via increases in intracellular free calcium levels, compound 10 alone and in combination with two different intracellular calcium chelators (1,2-Bis(2-aminophenoxy) ethane-N,N,N′,N′-tetraacetic acid tetrakis(acetoxymethyl ester) aka “BAPTA-AM”, and ammoniated ruthenium oxychloride aka “ruthenium red”) was tested in an xCELLigence™ cell death assay as in Example 3. The intracellular calcium chelators alone were also evaluated on the cells.

A549 xenograft = test: athymic mouse A549 xenograft model; format: in vivo, mice
Experimental: Female athymic nu/nu mice (6-8 weeks old) were purchased from Simonsen labs (n=12) and were housed at the Murigenics vivarium in Vallejo. The mice were acclimated to the setting of the vivarium for 5 days and maintained on a standard chow diet; 12:12 dark/light cycle; and group housed (3 mice per cage) in hepa-filtered cages. After acclimation, each mouse was injected subcutaneously (lower left abdominal flank) with 5×10^6 A549 (ATCC: CCL-185) cells mixed with 1:1 (v/v) with Matrigel solution. When the tumors reached a volume of ˜100 mm3, the mice were divided into separate treatment groups for the desired treatments. Experiments using both intra-tumoral (IT) and intraperitoneal (IP) administration were performed and the data are reported in FIG. 19.
Mice prepared as described above were divided into 4 groups: • Group 1: were not treated with anything (n=3) • Group 2: received an intra-tumoral injection of 50 microliters of Phosphate Buffered Saline (mock) (n=3) • Group 3: received an intra-tumoral injection of 50 microliters of 10 mg/ml compound 10 in Phosphate Buffered Saline (n=3) • Group 4: received an intra-tumoral injection of 50 microliters of 20 mg/ml compound 10 in Phosphate Buffered Saline (n=3)
The 50 microliter injections were carried out with a (30 g needle). The injections were administered on day zero and then again on day 3. The length (L) and the width (W) of the tumor mass was measured with a Vernier caliper and the tumor volume (V) was calculated as V=(L×W^2)/2. The relative tumor volume of each tumor mass on each measurement day was normalized against the initial volume of the same mass on day zero right before initiation of injections. […]
The injections were carried out with a 30 g needle. […] The length (L) and the width (W) of the tumor mass was measured with a Vernier caliper and the tumor volume (V) was calculated as V=(L×W^2)/2. […]

RAD51 = target: T1, RAD51 (Homo sapiens, UniProt Q06609); test: microscale thermophoresis; format: binding
T1 sequence (Q06609 1-339): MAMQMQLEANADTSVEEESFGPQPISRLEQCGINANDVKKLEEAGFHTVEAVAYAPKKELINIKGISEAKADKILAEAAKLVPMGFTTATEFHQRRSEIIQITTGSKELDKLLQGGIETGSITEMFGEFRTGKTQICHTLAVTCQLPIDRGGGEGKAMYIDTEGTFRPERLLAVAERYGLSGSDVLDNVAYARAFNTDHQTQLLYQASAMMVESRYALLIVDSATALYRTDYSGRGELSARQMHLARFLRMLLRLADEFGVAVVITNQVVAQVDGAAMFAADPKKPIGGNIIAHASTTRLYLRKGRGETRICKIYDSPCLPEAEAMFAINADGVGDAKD
Experimental: To test the interaction between calcium binding and peptide binding to RAD51, the Kds of active (Compound 5, 10) peptides for RAD51 were tested by a microscale thermophoresis assay, and the Kd of compound 5 was additionally performed in the presence of 1 mM calcium.
Microscale thermophoresis was performed as previously described (see, for e.g. Jerabek-Willemsen, M., Wienken, C. J., Braun, D., Baaske, P. & Duhr, S. Molecular interaction studies using microscale thermophoresis. Assay Drug Dev. Technol. 9, 342-353 (2011)). The affinity of the Compound was measured using the Monolith NT.115 from Nanotemper Technologies. Rad51 was fluorescently labelled according to the manufacturer's protocol and the labelled protein used for each assay was about 500 nM. A solution of unlabelled peptide was diluted for appropriate serial concentration gradient. The samples were loaded into silica capillaries (Polymicro Technologies). Measurements were performed at room temperature in buffer containing PBS, 0.1% Tween 20, 0.5 mM ATP, 2.5 uM ssDNA, with 1 mM CaCl2 (when mentioned). Measurements were done using 12% LED power and 60% MST power. The assays were repeated three times for each affinity measurement. Data analyses were performed using Nanotemper Analysis software and OriginPro 8.0 software provided by the manufacturer.

A549 cells = test: xCELLigence cell death assay; format: cell-based; conditions: FIG. 15
Experimental: as §1

CSCC[C@@H](NC(=O)[C@@H](CC(C)C)NC(C)=O)C(=O)N[C@H](CCCNC(=N)N)C(=O)N[C@H](CO)C(=O)N[C@@H](C(=O)N[C@H](CCCNC(=N)N)C(=O)N[C@H](CC(C)C)C(=O)N[C@H](CCCNC(=N)N)C(=O)N[C@@H](C(=O)NCC(=O)N[C@H](CC(C)C)C(=O)N[C@H](CCCNC(=N)N)C(=O)N[C@H](CCCCN)C(=O)N[C@H](CCCNC(=N)N)C(=O)N[C@H](CCCNC(=N)N)C(=O)N[C@H](CCCNC(=N)N)C(=O)N[C@H](CCCNC(=N)N)C(=O)N[C@H](CCCNC(=N)N)C(=O)N[C@H](CCCNC(=N)N)C(=O)N[C@H](CCCNC(=N)N)C(N)=O)C(C)C)C(C)C [Compound 10, Ac-lmrsvrlrvGlrkrrrrrrr-NH2]
cell death of SSP-25 cells, compound alone (SSP-25 cells): significant cell death
relative tumor volume, intra-tumoral dosing (A549 xenograft; 50 microliters of 10 or 20 mg/ml intra-tumoral on day 0 and day 3, measured days 0, 3, 6): measurable decreases in tumor size as early as day 3
relative tumor volume, intra-peritoneal dosing (A549 xenograft; 125 microliters of 3 mg/ml intra-peritoneal on day 7, measured days 0-10): measurable decreases in tumor size as early as 3 days after injection (day 10)
tumor volume (A549 xenograft; FIG. 19, intratumoral and intraperitoneal): significant effects on tumor volume after only a few days of treatment
Kd (RAD51; PBS): 8.55 nM
Kd (RAD51; without added calcium): ~8 nM
cell killing of A549 cells (cell index) (A549 cells): cell killing of A549 cells
